According to patent publication US9254261B2, “Stable quick dissolving dosage form comprising amoxicillin and clavulanic acid” (Sandoz AG, priority 2014, dated 2016):

Experiment: Stability of potassium clavulanate alone and in binary mixtures with excipients, stressed storage 7 days at 60° C.
Assay type: physicochemical
Settings: after storage 7 days at 60° C.; control sample, no excipient
Description: In particular, the effect of different excipients and different mixture preparation conditions on the stability of the active ingredients was analyzed. […] In addition, two sets of compatibility studies with various excipients were conducted to investigate the influence of excipients on the stability of clavulanic acid and amoxicillin in the final dosage form. In the first study, a total of eight binary (i.e. two component) mixtures were prepared, each combining: […] (a) silicified microcrystalline cellulose, (b) low moisture silicified microcrystalline cellulose, having a moisture content of less than about 3.0%, (c) crospovidone, or (d) mannitol. […] After storage at a temperature of about 60° C. for about 7 days, each of the mixtures was then assayed to determine the amount of active ingredient remaining. Similarly, in the second study, a total of eight binary mixtures were prepared, each combining: […] (a) silicified microcrystalline cellulose, (b) low moisture silicified microcrystalline cellulose, (c) crospovidone, or (d) colloidal silicon dioxide. […] Further, each of the binary mixtures in the second study was prepared in a reduced moisture environment at a normal relative humidity (RH) of less than 30%. After storage at a temperature of about 60° C. for about 7 days, each of the mixtures was then assayed to determine the amount of active ingredient remaining.

## O=C(O)[C@H]1/C(=C/CO)O[C@@H]2CC(=O)N21 [Clavulanic acid (CA), potassium clavulanate]
  Assay of clavulanic acid (%): 94%
